Source: ChEMBL document CHEMBL1158948, “[Isolation and synthesis of espintanol, a new antiparasitic monoterpene]” (J Nat Prod, 1991)

Key:
Trypanosoma cruzi [1] = test: Antitrypanosomal activity against Trypanosoma cruzi Tulahuen after 48 hrs; format: functional
Trypanosoma cruzi [2] = test: Antitrypanosomal activity against Trypanosoma cruzi 27R27CL1 after 48 hrs; format: functional
Trypanosoma cruzi [3] = test: Antitrypanosomal activity against Trypanosoma cruzi Z1 after 48 hrs; format: functional
Trypanosoma cruzi [4] = test: Antitrypanosomal activity against Trypanosoma cruzi Z2 after 48 hrs; format: functional
Trypanosoma cruzi [5] = test: Antitrypanosomal activity against Trypanosoma cruzi Z2CL4 after 48 hrs; format: functional
Trypanosoma cruzi [6] = test: Antitrypanosomal activity against Trypanosoma cruzi 13379 CL3 after 48 hrs; format: functional
Trypanosoma cruzi [7] = test: Antitrypanosomal activity against Trypanosoma cruzi 13379 CL5 after 48 hrs; format: functional
Trypanosoma cruzi [8] = test: Antitrypanosomal activity against Trypanosoma cruzi 13379 CL6 after 48 hrs; format: functional
Trypanosoma cruzi [9] = test: Antitrypanosomal activity against Trypanosoma cruzi 13379 CL8 after 48 hrs; format: functional
Trypanosoma cruzi [10] = test: Antitrypanosomal activity against Trypanosoma cruzi C8 CL1 after 48 hrs; format: functional
Trypanosoma cruzi [11] = test: Antitrypanosomal activity against Trypanosoma cruzi A98CL5 after 48 hrs; format: functional
Trypanosoma cruzi [12] = test: Antitrypanosomal activity against Trypanosoma cruzi MIL4CL10 after 48 hrs; format: functional
Trypanosoma cruzi [13] = test: Antitrypanosomal activity against Trypanosoma cruzi M6241CL6 after 48 hrs; format: functional
Trypanosoma cruzi [14] = test: Antitrypanosomal activity against Trypanosoma cruzi 9280CL1 after 48 hrs; format: functional
Trypanosoma cruzi [15] = test: Antitrypanosomal activity against Trypanosoma cruzi CL after 48 hrs; format: functional
Trypanosoma cruzi [16] = test: Antitrypanosomal activity against Trypanosoma cruzi Y after 48 hrs; format: functional
Trypanosoma cruzi [17] = test: Antitrypanosomal activity against Trypanosoma cruzi A99CL7 after 48 hrs; format: functional
Trypanosoma cruzi [18] = test: Antitrypanosomal activity against Trypanosoma cruzi R107 after 48 hrs; format: functional
Trypanosoma cruzi [19] = test: Antitrypanosomal activity against Trypanosoma cruzi TeCL2 after 48 hrs; format: functional
Trypanosoma cruzi [20] = test: Antitrypanosomal activity against Trypanosoma cruzi 31R16CL1 after 48 hrs; format: functional
[21] = test system: Leishmania mexicana mexicana; test: Antileishmanial activity against Leishmania mexicana mexicana BEL21 after 48 hrs; format: functional
Leishmania aristidesi = test: Antileishmanial activity against Leishmania mexicana […] 6331 after 48 hrs; format: functional
[22] = test system: Leishmania mexicana venezuelensis; test: Antileishmanial activity against Leishmania mexicana venezuelensis PM H3 after 48 hrs; format: functional
[23] = test system: Leishmania donovani donovani; test: Antileishmanial activity against Leishmania donovani donovani HS 70 after 48 hrs; format: functional
Leishmania chagasi [24] = test: Antileishmanial activity against Leishmania donovani chagasi LEM 379 after 48 hrs; format: functional
Leishmania braziliensis [25] = test: Antileishmanial activity against Leishmania (Viannia) braziliensis 2904 after 48 hrs; format: functional
Leishmania guyanensis = test: Antileishmanial activity against Leishmania (Viannia) guyanensis M4147 after 48 hrs; format: functional
Leishmania peruviana = test: Antileishmanial activity against Leishmania (Viannia) peruviana PERU after 48 hrs; format: functional
Leishmania amazonensis [26] = test: Antileishmanial activity against Leishmania mexicana amazonensis PH8 after 48 hrs; format: functional
Leishmania pifanoi = test: Antileishmanial activity against Leishmania pifanoi LL1 after 48 hrs; format: functional
Leishmania garnhami = test: Antileishmanial activity against Leishmania mexicana garnhami JAP78 after 48 hrs; format: functional
Leishmania chagasi [27] = test: Antileishmanial activity against Leishmania donovani chagasi after 48 hrs; format: functional
Leishmania infantum = test: Antileishmanial activity against Leishmania donovani infantum LEM 209 after 48 hrs; format: functional, LEM209
Leishmania braziliensis [28] = test: Antileishmanial activity against Leishmania (Viannia) braziliensis after 48 hrs; format: functional
Leishmania amazonensis [29] = test: Antileishmanial activity against Leishmania mexicana amazonensis after 48 hrs; format: functional
Trypanosoma cruzi [30] = test: Antitrypanosomal activity against Trypanosoma cruzi C8CL1 after 48 hrs; format: functional
Mus musculus = test: Toxicity in BALB/c mouse at 800 mg/kg, ip after 72 hrs; format: organism-based; parameters: dose 800 mg/kg, route intraperitoneal; details: in vivo

CC1CS(=O)(=O)CCN1/N=C/c1ccc([N+](=O)[O-])o1 (configuration not stated) [NIFURTIMOX]
100 µg/mL: IC90 (Trypanosoma cruzi [2]) | IC90 (Trypanosoma cruzi [7]) | IC90 (Trypanosoma cruzi [11]) | IC90 (Trypanosoma cruzi [15]) | IC90 (Trypanosoma cruzi [20])
> 100 µg/mL: IC90 (Trypanosoma cruzi [6]) | IC90 (Trypanosoma cruzi [8])
50 µg/mL: IC90 (Trypanosoma cruzi [3]) | IC90 (Trypanosoma cruzi [5]) | IC90 (Trypanosoma cruzi [9]) | IC90 (Trypanosoma cruzi [12]) | IC90 (Trypanosoma cruzi [13]) | IC90 (Trypanosoma cruzi [14])
25 µg/mL: IC90 (Trypanosoma cruzi [1]) | IC90 (Trypanosoma cruzi [4]) | IC90 (Trypanosoma cruzi [10]) | IC90 (Trypanosoma cruzi [16]) | IC90 (Trypanosoma cruzi [17]) | IC90 (Trypanosoma cruzi [18]) | IC90 (Trypanosoma cruzi [19])

MEGLUMINE ANTIMONATE
> 100 µg/mL: IC90 [21] | IC90 (Leishmania aristidesi) | IC90 [22] | IC90 [23] | IC90 (Leishmania chagasi [24])

COc1cc(C)c(O)c(OC)c1C(C)C [ESPINTANOL]
> 100 µg/mL: IC90 (Trypanosoma cruzi [11]) | IC90 (Trypanosoma cruzi [13]) | IC90 (Trypanosoma cruzi [15])
100 µg/mL: IC90 (Trypanosoma cruzi [5]) | IC90 (Trypanosoma cruzi [8])
Active: Activity (Mus musculus)
25 µg/mL: IC90 (Leishmania guyanensis) | IC90 (Leishmania peruviana) | IC90 [21] | IC90 (Leishmania amazonensis [26]) | IC90 (Leishmania pifanoi) | IC90 (Leishmania aristidesi) | IC90 (Leishmania garnhami) | IC90 (Leishmania chagasi [24]) | IC90 (Leishmania infantum) | IC90 (Leishmania amazonensis [29]) | IC90 (Trypanosoma cruzi [1]) | IC90 (Trypanosoma cruzi [30]) | IC90 (Trypanosoma cruzi [2]) | IC90 (Trypanosoma cruzi [10]) | IC90 (Trypanosoma cruzi [12]) | IC90 (Trypanosoma cruzi [17]) | IC90 (Trypanosoma cruzi [18]) | IC90 (Trypanosoma cruzi [19])
50 µg/mL: IC90 [22] | IC90 [23] | IC90 (Trypanosoma cruzi [3]) | IC90 (Trypanosoma cruzi [4]) | IC90 (Trypanosoma cruzi [6]) | IC90 (Trypanosoma cruzi [7]) | IC90 (Trypanosoma cruzi [9]) | IC90 (Trypanosoma cruzi [14]) | IC90 (Trypanosoma cruzi [16]) | IC90 (Trypanosoma cruzi [20])
10 µg/mL: IC90 (Leishmania braziliensis [25]) | IC90 (Leishmania chagasi [27]) | IC90 (Leishmania braziliensis [28])

COc1cc(C)c(OC)c(OC)c1C(C)C
> 100 µg/mL: IC90 (Leishmania chagasi [27]) | IC90 (Leishmania braziliensis [28]) | IC90 (Leishmania amazonensis [29]) | IC90 (Trypanosoma cruzi [1]) | IC90 (Trypanosoma cruzi [30]) | IC90 (Trypanosoma cruzi [2])

N=C(N)c1ccc(OCCCCCOc2ccc(C(=N)N)cc2)cc1 [PENTAMIDINE]
5 µg/mL: IC90 (Leishmania guyanensis) | IC90 (Leishmania peruviana) | IC90 [22]
1 µg/mL: IC90 (Leishmania braziliensis [25]) | IC90 [21] | IC90 (Leishmania amazonensis [26]) | IC90 (Leishmania pifanoi) | IC90 (Leishmania aristidesi) | IC90 (Leishmania garnhami) | IC90 [23] | IC90 (Leishmania chagasi [24]) | IC90 (Leishmania infantum)

O=C(Cn1ccnc1[N+](=O)[O-])NCc1ccccc1 [BENZNIDAZOLE]
25 µg/mL: IC90 (Trypanosoma cruzi [12]) | IC90 (Trypanosoma cruzi [16]) | IC90 (Trypanosoma cruzi [19])
100 µg/mL: IC90 (Trypanosoma cruzi [2]) | IC90 (Trypanosoma cruzi [3]) | IC90 (Trypanosoma cruzi [4]) | IC90 (Trypanosoma cruzi [5]) | IC90 (Trypanosoma cruzi [7]) | IC90 (Trypanosoma cruzi [10]) | IC90 (Trypanosoma cruzi [11]) | IC90 (Trypanosoma cruzi [15]) | IC90 (Trypanosoma cruzi [17]) | IC90 (Trypanosoma cruzi [20])
> 100 µg/mL: IC90 (Trypanosoma cruzi [6]) | IC90 (Trypanosoma cruzi [8]) | IC90 (Trypanosoma cruzi [9]) | IC90 (Trypanosoma cruzi [13])
50 µg/mL: IC90 (Trypanosoma cruzi [1]) | IC90 (Trypanosoma cruzi [14]) | IC90 (Trypanosoma cruzi [18])

COc1cc(C(C)C)c(OC)cc1C [THYMOQUINOL DIMETHYLETHER]
> 100 µg/mL: IC90 (Leishmania chagasi [27]) | IC90 (Leishmania braziliensis [28]) | IC90 (Leishmania amazonensis [29]) | IC90 (Trypanosoma cruzi [1]) | IC90 (Trypanosoma cruzi [30]) | IC90 (Trypanosoma cruzi [2])

COc1cc(C(C)C)ccc1C
25 µg/mL: IC90 (Leishmania chagasi [27]) | IC90 (Leishmania braziliensis [28]) | IC90 (Leishmania amazonensis [29])
> 100 µg/mL: IC90 (Trypanosoma cruzi [1]) | IC90 (Trypanosoma cruzi [30]) | IC90 (Trypanosoma cruzi [2])
